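Method: 48-hour compound exposure of cells in 96-well plates, five concentrations, linear interpolation of endpoints. Abbreviation: GI50, concentration required for 50% inhibition of growth. TGI is the concentration that stops growth completely.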
Key:
Assay in all cases: NCI anticancer screen, dose series, 48 h
[1] = system: HCT-15 colon
[2] = system: SNB-19 CNS
[3] = system: HOP-62 NSCLC
[4] = system: U251 CNS
[5] = system: SK-OV-3 ovarian
[6] = system: MOLT-4 leukemia
[7] = system: HL-60(TB) leukemia
[8] = system: SK-MEL-2 melanoma

Structure (SMILES)	TGI [1] [µM]	TGI [2] [µM]	TGI [3] [µM]	TGI [4] [µM]	TGI [5] [µM]	TGI [6] [µM]	TGI [7] [µM]	TGI [8] [µM]	GI50 [3] [µM]	GI50 [5] [µM]	GI50 [8] [µM]	GI50 [1] [µM]	GI50 [7] [µM]	GI50 [6] [µM]
O=C(O)Cn1c[n+](NC(=O)Cc2ccccc2)cn1	> 10	> 10	> 10	> 10	> 10	> 10								
CC(=O)Nc1ccc2c(c1)nc1c3ccccc3ccn21	> 100	> 100	> 100	> 100	> 100	> 100	> 100	> 100						
CC1=NN(c2cccc(Cl)c2)C2(C1=Cc1ccc(N(C)C)cc1)C(Cl)C(=O)N2c1nc2ccccc2s1 (configuration not stated)	> 100		> 100	> 100	> 100	> 100	> 100	> 100						
COc1ccccc1Cn1c2c(c3cc(O)ccc31)C(=O)c1ccccc1C2=O	> 100	> 100	> 100	64.9	10	> 100	> 100	> 100						
O=C1c2c(Br)sc(Br)c2[C@H]2OC(=S)N[C@@H]12	3.76	30	30.7	7.08	29.9	5		29						
CCOP(=O)(CC1OC(CO)C(O)C1O)OCC (configuration not stated)	> 100	> 100	> 100	> 100	> 100	> 100	> 100	> 100						
C/C(=C\CO)CC[C@@H]1[C@@]2(C)CCCC(C)(C)[C@@H]2CC[C@@]1(C)O	33.7	42.9		31	57.1	69.2	45.7	31.4						
CO[C@H](C)[C@](O)(C(=O)OCC1=CCN2CC[C@@H](O)[C@H]12)C(C)C	> 100	> 100	> 100	> 100	> 100	> 100		> 100						
Cc1ccc2nc(Nc3ccccc3C)c(Nc3ccccc3C)nc2c1	58.7	> 100	> 100	> 70	> 100	> 100	> 74.6	31.7						
Cn1c2ccccc2c2c3c(=O)[nH][nH]c(=O)c3c3c4ccccc4n(C)c3c21	> 100	> 100	> 100	> 100	> 100	> 100		> 100						
CCc1ccc(OCc2ccccc2C(=O)Nc2ccc3nc(C)cc(N)c3c2)cc1			3.31		3			3.39	1.77	1.64	1.79			
COc1cc2c3cc1Oc1cc(ccc1O)C[C@@H]1c4c(cc(OC)c(O)c4Oc4ccc(cc4)C[C@@H]3[N+](C)(C)CC2)CC[N+]1(C)C	> 100	> 100	> 100	> 100		> 100	> 100	> 100						
Fc1ccc(OCc2ccc3nc(-c4ccccc4)c(Cl)nc3c2)cc1	> 100		31.3	39		60	> 100	> 100						
O=C(O)C12C3C4(C(=O)O)C1C1(C(=O)O)C2C3(C(=O)O)C41 (configuration not stated)	> 100	> 100	> 100	> 100		> 100	> 100	> 100						
COc1cccc(Nc2nc3c([nH]2)c(=O)n(C)c(=O)n3C)c1	> 10		> 10		> 10	> 10	> 10							
O/N=C/[C@H]1COC2(CCCCC2)O1	> 100	> 100	> 100	> 100	> 100	> 100		> 100						
O=C1C=CC(=O)c2c(O)c(N3CCN(c4ncccn4)CC3)c(Cl)c(O)c21		18	5.63	12	38.6	5.5	0.766	3.47						
C[C@@](Br)(C(=O)O)[C@H](Br)C(=O)O	> 100	> 100	> 100	> 100	> 100	> 100	> 100							
Cn1c(=O)c2[nH]c(Nc3cccc(Cl)c3)nc2n(C)c1=O	> 10		> 10		> 10	> 10	> 10							
CC1=[N+]([O-])C2(CCCC2)N(O)C1(C)C	> 100	> 100	> 100	> 100	> 100		> 100	> 100						
CCOP(=O)(COCCn1nc(Br)c(=O)[nH]c1=O)OCC	> 100	> 100	> 100	> 100		> 100	> 100	> 100						
Clc1sc(Cl)c2c1[C@H](Br)C[C@@H]2Cl	40.7	> 100	> 100	83.8	> 100	53.1		> 100						
CC(C)(C)C#CI1OC(=O)c2ccccc21	11.6	22.9	27.2	11.2	25.1	10		27						
O=C1c2cc3c(cc2-c2c1c1cc(F)c(F)cc1c(=O)n2C[C@H](O)CO)OCO3	1.74		0.186		0.641	> 100	> 100	0.625	0.0225	0.0481	0.243	0.19	0.0426	0.0317
COc1ccc(CCn2ccc(=O)c(O)c2C)cc1OC	> 100	> 100	> 100	> 100	> 100	> 100	81.9							
